Key:
[1] = Encapsulation efficiency of RNA in nanoparticle compositions (RIBOGREEN assay); format: physicochemical; details: Table 1A; lipid:DSPC:cholesterol:PEG-DMG 50:10:38.5:1.5 mol %
Outline: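 Lipid nanoparticles (ionisable lipid:DSPC:cholesterol:PEG-DMG 50:10:38.5:1.5 mol %) carrying N1-methylpseudouridine luciferase or hEPO mRNA diluted to about 5 μg/mL in TE, pH 7.5, with or without 2% Triton X-100, 15 min at 37° C. RiboGreen fluorescence (ex ~480, em ~520 nm) blank-subtracted; free RNA = intact/disrupted signal.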

[2] = tested on: modified luciferase; experiment: Luciferase expression in liver, lung, spleen and femur 6 hours after intravenous administration to mice; format: in vivo; details: 6 hours after intravenous 0.5 mpk, mice
Outline: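 Mice (n=3) got a single 0.5 mpk IV dose of each nanoparticle composition, with MC3 and PBS controls alongside. Organ luminescence flux was read 6 h post-dose.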

[3] = tested on: IL-6, IP-10; experiment: Cytokine induction (IL-6, IP-10) in mice 6 hours after intravenous administration; format: in vivo; parameters: unit not given here; details: intravenous 0.5 mpk
Outline: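 IL-6 and IP-10 concentrations determined 6 hours after a single intravenous 0.5 mpk dose of lipid nanoparticle formulation in mice, with MC3 and PBS as comparators.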

[4] = tested on: CD-1 mice; experiment: Luciferase expression after intravenous delivery of luciferase mRNA LNPs (bioluminescent imaging); format: in vivo; details: intravenous 0.5 mg/kg mRNA dose
Method: Whole body and ex vivo organ bioluminescent imaging of mice: CD-1 mice were injected 15 minutes prior to the imaging timepoint intraperitoneally (IP) with 200 μL Xenolight D-luciferin K+ salt, diluted in PBS just prior to use to a concentration of 15 mg/mL. Ex vivo imaging of organs was completed, within 25 minutes of luciferin administration. All images were quantified by region of interest for total flux.
[…] […] (See Semple, S.C. et al., Nature Biotech. 2010. 28, 172-176, Jayaraman, M., et al. Angew. Chem. Int. Ed. 2012, 51, 8529-8533, the entire contents of each of which are incorporated by reference herein in their entireties). To evaluate the efficiency of the new amino lipids, LNPs using the novel compounds were tested in vivo in mice using luciferase mRNA as a reporter. An MC3 LNP was included as a control in each experiment, enabling the comparison of LNPs from experiment to experiment. Measured luciferase activity also enabled the determination of protein bio-distribution.

[5] = Chemical stability of lipids in ethanol at room temperature and 37° C. (lipid purity); format: physicochemical
Method: Ester linkages were previously reported to trigger metabolism by esterases in vivo. (See Fukami, T. et al. Drug Metab. Pharmacokinet. 2012, 27, 466-477, the content of which is incorporated by reference herein in its entirety). […] (See Maier M. A., Mol. Ther. 2013, 21, 1570-1578, the content of which is incorporated herein in its entirety) First, the chemical stability of the lipids was evaluated by measuring ethanol stability at room temperature and 37° C. (Table 39). […] LNPs formed with compound 138 were larger, with a surface pKa>7. […] Removal of one ester function (compound 136) afforded LNPs with improved physiochemical characteristics and lower LNP surface pKa.

[6] = Particle size and polydispersity index of nanoparticle compositions (Zetasizer Nano ZS); format: physicochemical
Outline: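 Formulations of ionizable lipid, DSPC, cholesterol and PEG-DMG (50:10:38.5:1.5 mol %) carrying Luc or hEPO mRNA with all uridines as N1-methyl pseudouridine. Dynamic light scattering in 1×PBS gave particle size and polydispersity; zeta potential read in 15 mM PBS.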

[7] = tested on: hEPO mRNA; experiment: hEPO expression after intravenous administration to rats; format: in vivo, rat; details: rats, 6 hours; for Lipid/MC3 hEPO conc. ratio, 0.2 mpk: intravenous 0.2 mpk; for Lipid/MC3 hEPO conc. ratio, 2 mpk: intravenous 2 mpk
Method: The expression of hEPO and cytokine induction in rats intravenously administered a nanoparticle composition at a dose of 2.0 mpk was measured at 6 h.
(§1) The expression of hEPO in rats intravenously administered a nanoparticle composition at a dose of 0.2 mpk or 2.0 mpk was measured at 6 hours. Table 16 summarize the ratio of hEPO expression levels using various nanoparticle compositions as compared to the hEPO expression level using MC3 formulation and the lipid levels in the liver measured 48 hours after administration, as described above. Tables 17 and 18 summarize the lipid levels in the liver and spleen measured 48 hours after administration of Compounds 28, 33, 53, and 54. Liver and spleen levels represent the average values calculated for 3 rats in each group. As is shown in Tables 17 and 18, less than 10% of Compounds 28, 33, 53, and 54 remained in the liver after 48 hours, while greater than 60% of MC3 remained.
(§2) Table 19A summarizes the hEPO expression, IP-10 induction, liver and spleen levels, and alanine aminotransferase (ALT) and aspartate aminotransferase (AST) measured upon intravenous administration of formulations including Compounds 48, 49, and 50 to rat at 0.2 and 2 mpk and hEPO mRNA. hEPO concentrations were measured 6 hours after administration, while cytokine induction and liver and spleen levels were measured 48 hours after administration. hEPO and IP-10 concentrations are presented in pg/ml, while liver levels are provided in ng/g. ALT and AST levels are presented in international units.
The expression of hEPO induced by intravenous administration to rats of nanoparticle compositions at various doses was measured at 2, 4, 6, 8, 24, and 48 hour time points. FIGS. 3-6 respectively summarize the hEPO expression measured upon intravenous administration of formulations including Compounds 26, 18, 25, and MC3 to rat at various doses. The lipid levels of Compound 26 in the liver after 48 hours were about 19%.
(§3) The expression of hEPO and lipid levels in the liver and spleen in rats intravenously administered a nanoparticle composition at a dose of 0.2 mpk was measured at various time points. Compounds 18 and 25 were selected for comparison with MC3. Lipids were formulated according to the standard MC3 formulation described above. Rats were administered intravenously a single 0.2 mpk dose and expression monitored at 0.25, 0.5, 1, 2, 4, 8, 24, and 48 hours after administration.

[8] = Residual lipid levels in rat liver and spleen (UPLC-MS); format: in vivo; details: rats, 2 mpk, 48 h; assuming 300 g rat and 15 g liver
Method: At 48 h liver tissue was harvested for lipid quantification. To pre-weighed tissues, Milli-Q water was added (900 μL water per 100 mg tissue). Tissues were homogenized using an Omni probe homogenizer until uniform. 50 μL of samples and matrix calibration standards were aliquoted into a 96-well plate. 50 μL of blank matrix for matrix blanks and control blanks were aliquoted. 400 μL IS spiking solution were manually added to all samples except matrix blanks. 400 μL of 50:50 ACN:IPA were manually added to matrix-blanks. The plate was covered and the samples vortexed and centrifuged for 5 minutes at >3000 rpm. 200 μL of the samples were transferred into a clean 96-well plate for analysis. Samples were analyzed on a Waters Acquity UPLC using a Higgins Analytical Clipeus C8 column ([…], 30×2.1 mm) and a gradient of either 70-95% or 60-95% (Mobile Phase A: 5 mM ammonium formate in 50:50:1 H2O:MeOH:formic acid; Mobile Phase B: 5 mM ammonium formate in 100:1 MeOH:formic acid) over 1.3 min at […] (column temperature 55° C.). Detection was based on electrospray ionization (ESI) in positive mode using a Sciex API5500 Mass Spectrometer.
as §1, §2, §3

[9] = tested on: luciferase (Luc) mRNA; experiment: Luciferase expression (whole body bioluminescence) after intravenous administration to mice; format: in vivo; details: Table 3G, intravenous, luciferase, 6 hr. timepoint, relative to MC3
Outline: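 Luc mRNA nanoparticles were given IV at 0.5 mg/kg to groups of six mice, and whole-body bioluminescent flux was imaged 3, 6 and 24 h post-dose. Flux AUC for each lipid formulation was reported as a ratio to the MC3 reference formulation.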

[10] = Lipid clearance: mouse liver tissue level and % dose remaining in liver after intravenous administration; format: in vivo; details: mouse, liver, 0.5 mg/kg
[11] = Table 1A, lipid:DSPC:cholesterol:PEG-DMG 50:10:38.5:1.5 mol %
[12] = Table 1D, compositions for subcutaneous administration, # formulated with hEPO mRNA

EE [1] [%] | Cytokine induction, IL-6 [3] | Cytokine induction, IP-10 [3] | Lipid Purity, t = 96 h, 25° C. [5] [%] | Lipid Purity, t = 96 h, 37° C. [5] [%] | Lipid Purity, t = 0 [5] [%] | Size [6, 11] [nm] | SMILES | Total Flux, Femur [2] | Total Flux, Liver [2] | Total Flux, Lung [2] | Total Flux, Spleen [2] | also measured
– | – | – | – | – | – | 88 | CCCCCCCCC(CC)OC(=O)CCCCCCCN(CCO)CCCCCCCC(=O)OC(CCCCCCCC)CCCCCCCC (stereo not drawn) [Compound 49, heptadecan-9-yl 8-((2-hydroxyethyl)(8-oxo-8-(undecan-3-yloxy)octyl)amino)octanoate] | – | 5.68E+09 | 2.52E+07 | 1.87E+08 | Size [6, 12]: 74.0 nm; Lipid/MC3 hEPO conc. ratio, 0.2 mpk [7]: 4.13; Lipid/MC3 hEPO conc. ratio, 2 mpk [7]: 3.28; % Lipid Remaining in liver, 48 h, 2 mpk [8]: 12.6%
– | – | – | – | – | – | 68.4 | CCCCCCCCC(CCC)OC(=O)CCCCCCCN(CCO)CCCCCCCC(=O)OC(CCCCCCCC)CCCCCCCC (stereo not drawn) [Compound 50, dodecan-4-yl 8-((8-(heptadecan-9-yloxy)-8-oxooctyl)(2-hydroxyethyl)amino)octanoate] | – | 6.30E+09 | 2.81E+07 | 1.14E+08 | Lipid/MC3 hEPO conc. ratio, 0.2 mpk [7]: 3.41; Lipid/MC3 hEPO conc. ratio, 2 mpk [7]: 3.03; % Lipid Remaining in liver, 48 h, 2 mpk [8]: 15.9%
96.99 | 69.54 | 1362.81 | 97.67 | 98.10 | 97.017 | – | CCCCCCCCC(CCCCCCCC)OC(=O)CCCCCCCN(CCO)CCCCCCCC(=O)OC(CCCCCCCC)CCCCCCCC [compound 29, Di(heptadecan-9-yl) 8,8′-((2-hydroxyethyl)azanediyl)dioctanoate] | 9.56E+05 | 5.20E+08 | 9.83E+05 | 5.99E+06 | luciferase activity/expression compared to MC3 LNP control (words) [4]: lower luciferase activity

Second part, the compound before the results:

SMILES | EE [1] [%] | Cytokine induction, IL-6 [3] | Cytokine induction, IP-10 [3] | Lipid Purity, t = 96 h, 25° C. [5] [%] | Lipid Purity, t = 96 h, 37° C. [5] [%] | Lipid Purity, t = 0 [5] [%] | Size [6, 11] [nm] | Total Flux, Femur [2] | Total Flux, Liver [2] | Total Flux, Lung [2] | Total Flux, Spleen [2] | also measured
CCCCCCCCCOC(=O)CCCCCCCN(CCCCCCCC(=O)OC(CCCCCCCC)CCCCCCCC)CCN(C)C [Compound 14, Heptadecan-9-yl 8-((2-(dimethylamino)ethyl)(8-(nonyloxy)-8-oxooctyl)amino)octanoate] | 95.24 | 75.29 | 621.49 | 92.07 | 91.90 | 92.08 | – | 4.91E+06 | 1.91E+08 | 4.74E+06 | 1.92E+08 | luciferase activity/expression compared to MC3 LNP control (words) ([4]; 0.5 mg/kg): complete loss of delivery efficiency; luciferase activity/expression compared to MC3 LNP control (words) ([4]; listed as compound 14, 0.5 mg/kg): low levels of Luciferase expression
CCCCC/C=C\C/C=C\CCCCCCCCN(CCO)CCCCCCCC(=O)OCCCCCCCCC [Compound 136, Nonyl 8-((2-hydroxyethyl)((9Z,12Z)-octadeca-9,12-dien-1-yl)amino)octanoate] | 90.9 | 28.69 | 887.91 | 93.17 | 93.86 | 91.81 | – | 6.60E+05 | 1.34E+08 | 8.91E+05 | 2.77E+07 | –
CCCCCCCCCC(=O)OC(C)CCCCCCN(CCO)CCCCCCCOC(=O)C(CCCCCCCC)CCCCCCCC (stereo not drawn) [Compound 165, 7-((7-(Decanoyloxy)octyl)(2-hydroxyethyl)amino)heptyl 2-octyldecanoate] | 92.9 | – | – | – | – | – | 84.6 | – | – | – | – | Size [6, 12]: 74.3 nm; Novel lipid/MC3 ratio, i.v. [9]: 2.12; concentration at 6 h ([10]; 6 h): 26900 ng/g; concentration at 24 h ([10]; 24 h): 11700 ng/g
CCCCCCCCCOC(=O)CCCCCCCN(CCO)CCCCCCCC(=O)OCCCCCCCCC [compound 138, Dinonyl 8,8′-((2-hydroxyethyl)azanediyl)dioctanoate] | 91.8 | 23.38 | 172.56 | 98.64 | 97.82 | 97.59 | – | 1.58E+05 | 3.66E+06 | 9.47E+04 | 4.04E+06 | –
CCCCCCCCCOC(=O)CCCCCCCN(CCCCCCCC(=O)OC(CCCCCCCC)CCCCCCCC)CCCNC(=O)C(C)(C)COC [compound 281, Heptadecan-9-yl 8-((3-(3-methoxy-2,2-dimethylpropanamido)propyl)(8-(nonyloxy)-8-oxooctyl)amino)octanoate] | – | – | – | 95.15 | 96.47 | 95.17 | – | – | – | – | – | localization of protein expression (whole body imaging) [4]: majority of protein expression was localized in the liver; luciferase activity/expression compared to MC3 LNP control (words) [4]: two-fold lower

Reference: US10857105B2, “Compounds and compositions for intracellular delivery of therapeutic agents” (ModernaTX, Inc., priority 2017, dated 2020)
